The values below are quoted from earlier work in patent publication US9193713B2, “Compounds as cannabinoid receptor ligands” (priority 2007, dated 2015).

The test system of one data set is mice. Particulars: model for post-menopausal osteoporosis.
In the next data set the test system is microglial. Particulars: in vitro; effects blocked by SR144528.
For a further data set, the system named is animal models. Particulars: acute thermal, persistent, inflammatory and neuropathic pain models.
Another data set deals with rat. Particulars: rat formalin model of persistent pain.
For another data set, the system named is rodent. Particulars: neuropathic, incisional, chronic and acute inflammatory pain.
Data set [1] has as its system apolipoprotein E knockout mice. Particulars: low doses; effects inhibited by SR144528.

In the case of SR144528, the “effect on ovariectomy-induced bone loss” value in the data set on mice is “reverse ovariectomy-induced bone loss”. In addition, in the data set with osteoclast, the “effect on osteoclast activity” value was “inhibit osteoclast activity”.

`CCCC(C)(C)c1ccc2c(c1)OC(C)(C)[C@@H]1CC=C(C)C[C@@H]21` [JWH-133]: the “effect on β-amyloid-induced microglial activation and neurotoxicity” value in the data set with microglial is “abrogated β-amyloid-induced microglial activation and neurotoxicity”.

For the compound `CN1CCCCC1Cn1cc(C(=O)c2cc([N+](=O)[O-])ccc2I)c2ccccc21` (stereo not shown) [AM-1241], in the data set on animal models, the analgesic efficacy result was “robust analgesic efficacy”.

Turning to `CCCCCCC(C)(C)c1cc(OC)c([C@@H]2C=C(CO)[C@@H]3C[C@H]2C3(C)C)c(OC)c1` [HU-308], the antinociceptive response entry with rat is “elicits an antinociceptive response”.

Take `COc1ccc2c(c1)c(CCN1CCOCC1)c(C)n2C(=O)c1cccc(Cl)c1Cl` [GW405833]: the “efficacy in pain models” value in the data set on rodent is recorded as “efficacious”.

Regarding (−)-Δ^9-Tetrahydrocannabinol [THC], the “effect on progression of atherosclerotic lesions” value in data set [1] is reported as “slowed the progression of atherosclerotic lesions”.
